Laboratory results taken from PubChem BioAssay (NCI).
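Following 48 hours of exposure in 96-well plates, responses at five concentrations were used to interpolate endpoints linearly. TGI marks complete inhibition of growth.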

Tests used:
Test in all cases: NCI-60 cell line screen, 48 h
UO-31 renal = system: UO-31 renal
SK-MEL-2 melanoma = system: SK-MEL-2 melanoma
HCC-2998 colon = system: HCC-2998 colon
SW-620 colon = system: SW-620 colon
OVCAR-3 ovarian = system: OVCAR-3 ovarian
SK-MEL-28 melanoma = system: SK-MEL-28 melanoma
OVCAR-5 ovarian = system: OVCAR-5 ovarian
LXFL 529 NSCLC = system: LXFL 529 NSCLC
M14 melanoma = system: M14 melanoma
KM12 colon = system: KM12 colon
CAKI-1 renal = system: CAKI-1 renal
A498 renal = system: A498 renal
SK-MEL-5 melanoma = system: SK-MEL-5 melanoma
DLD-1 colon = system: DLD-1 colon
HOP-92 NSCLC = system: HOP-92 NSCLC
SN12C renal = system: SN12C renal
HL-60(TB) leukemia = system: HL-60(TB) leukemia
SF-268 CNS = system: SF-268 CNS
MALME-3M melanoma = system: MALME-3M melanoma
RPMI-8226 leukemia = system: RPMI-8226 leukemia
XF 498 CNS = system: XF 498 CNS
SNB-78 CNS = system: SNB-78 CNS
HCT-15 colon = system: HCT-15 colon
IGROV1 ovarian = system: IGROV1 ovarian
DMS 114 small cell lung = system: DMS 114 small cell lung
CCRF-CEM leukemia = system: CCRF-CEM leukemia
786-0 renal = system: 786-0 renal
RXF-631 renal = system: RXF-631 renal
DMS 273 small cell lung = system: DMS 273 small cell lung
SNB-75 CNS = system: SNB-75 CNS
ACHN renal = system: ACHN renal
A549 NSCLC = system: A549 NSCLC
M19-MEL melanoma = system: M19-MEL melanoma
NCI-H226 lung = system: NCI-H226 lung
UACC-257 melanoma = system: UACC-257 melanoma
U251 CNS = system: U251 CNS
SF-539 CNS = system: SF-539 CNS
LOX IMVI melanoma = system: LOX IMVI melanoma
HOP-18 NSCLC = system: HOP-18 NSCLC
RXF 393 renal = system: RXF 393 renal
SF-295 CNS = system: SF-295 CNS
SK-OV-3 ovarian = system: SK-OV-3 ovarian
KM20L2 colon = system: KM20L2 colon
UACC-62 melanoma = system: UACC-62 melanoma
NCI-H23 lung = system: NCI-H23 lung
HOP-62 NSCLC = system: HOP-62 NSCLC
K-562 leukemia = system: K-562 leukemia
COLO 205 colon = system: COLO 205 colon
OVCAR-4 ovarian = system: OVCAR-4 ovarian
MOLT-4 leukemia = system: MOLT-4 leukemia
NCI-H460 lung = system: NCI-H460 lung
HT29 colon = system: HT29 colon
HCT-116 colon = system: HCT-116 colon
EKVX NSCLC = system: EKVX NSCLC
OVCAR-8 ovarian = system: OVCAR-8 ovarian
TK-10 renal = system: TK-10 renal
SR leukemia = system: SR leukemia

CCOC(=O)NC1C2CC(=O)C(O2)C1OCc1ccccc1 (stereo not drawn)
TGI (UO-31 renal): > 100 µM
TGI (SK-MEL-2 melanoma): > 100 µM
TGI (HCC-2998 colon): > 100 µM
TGI (SW-620 colon): > 100 µM
TGI (OVCAR-3 ovarian): > 100 µM
TGI (SK-MEL-28 melanoma): > 100 µM
TGI (OVCAR-5 ovarian): > 100 µM
TGI (LXFL 529 NSCLC): > 100 µM
TGI (M14 melanoma): > 100 µM
TGI (KM12 colon): > 100 µM
TGI (CAKI-1 renal): > 100 µM
TGI (A498 renal): > 100 µM
TGI (SK-MEL-5 melanoma): > 100 µM
TGI (DLD-1 colon): > 100 µM
TGI (HOP-92 NSCLC): > 100 µM
TGI (SN12C renal): > 100 µM
TGI (HL-60(TB) leukemia): > 100 µM
TGI (SF-268 CNS): > 100 µM
TGI (MALME-3M melanoma): > 100 µM
TGI (RPMI-8226 leukemia): > 100 µM
TGI (XF 498 CNS): > 100 µM
TGI (SNB-78 CNS): > 100 µM
TGI (HCT-15 colon): > 100 µM
TGI (IGROV1 ovarian): > 100 µM
TGI (DMS 114 small cell lung): > 100 µM
TGI (CCRF-CEM leukemia): > 100 µM
TGI (786-0 renal): > 100 µM
TGI (RXF-631 renal): > 100 µM
TGI (DMS 273 small cell lung): > 100 µM
TGI (SNB-75 CNS): > 100 µM
TGI (ACHN renal): > 100 µM
TGI (A549 NSCLC): > 100 µM
TGI (M19-MEL melanoma): > 100 µM
TGI (NCI-H226 lung): > 100 µM
TGI (UACC-257 melanoma): > 100 µM
TGI (U251 CNS): > 100 µM
TGI (SF-539 CNS): > 100 µM
TGI (LOX IMVI melanoma): > 100 µM
TGI (HOP-18 NSCLC): > 100 µM
TGI (RXF 393 renal): > 100 µM
TGI (SF-295 CNS): > 100 µM
TGI (SK-OV-3 ovarian): > 100 µM
TGI (KM20L2 colon): > 100 µM
TGI (UACC-62 melanoma): > 100 µM
TGI (NCI-H23 lung): > 100 µM
TGI (HOP-62 NSCLC): > 100 µM
TGI (K-562 leukemia): > 100 µM
TGI (COLO 205 colon): > 100 µM
TGI (OVCAR-4 ovarian): > 100 µM
TGI (MOLT-4 leukemia): > 100 µM
TGI (NCI-H460 lung): > 100 µM
TGI (HT29 colon): > 100 µM

COC(=O)c1cc(-c2ccc(OC)c(OC)c2)oc1-c1ccc(OC)c(OC)c1
TGI (UO-31 renal): > 100 µM
TGI (SK-MEL-2 melanoma): > 100 µM
TGI (HCC-2998 colon): > 100 µM
TGI (SW-620 colon): > 100 µM
TGI (OVCAR-3 ovarian): > 100 µM
TGI (SK-MEL-28 melanoma): > 100 µM
TGI (OVCAR-5 ovarian): > 100 µM
TGI (HCT-116 colon): > 100 µM
TGI (LXFL 529 NSCLC): > 100 µM
TGI (M14 melanoma): > 100 µM
TGI (KM12 colon): > 100 µM
TGI (CAKI-1 renal): > 100 µM
TGI (EKVX NSCLC): > 100 µM
TGI (A498 renal): 59.5 µM
TGI (DLD-1 colon): > 100 µM
TGI (HOP-92 NSCLC): 71.4 µM
TGI (SN12C renal): 93.6 µM
TGI (HL-60(TB) leukemia): > 100 µM
TGI (SF-268 CNS): > 100 µM
TGI (MALME-3M melanoma): > 100 µM
TGI (RPMI-8226 leukemia): > 100 µM
TGI (XF 498 CNS): > 100 µM
TGI (SNB-78 CNS): > 100 µM
TGI (HCT-15 colon): > 100 µM
TGI (IGROV1 ovarian): > 100 µM
TGI (DMS 114 small cell lung): 95.5 µM
TGI (CCRF-CEM leukemia): > 100 µM
TGI (786-0 renal): > 100 µM
TGI (RXF-631 renal): > 100 µM
TGI (DMS 273 small cell lung): > 100 µM
TGI (SNB-75 CNS): > 100 µM
TGI (ACHN renal): > 100 µM
TGI (A549 NSCLC): > 100 µM
TGI (M19-MEL melanoma): > 100 µM
TGI (NCI-H226 lung): > 100 µM
TGI (UACC-257 melanoma): > 100 µM
TGI (U251 CNS): > 100 µM
TGI (SF-539 CNS): 96.2 µM
TGI (LOX IMVI melanoma): > 100 µM
TGI (HOP-18 NSCLC): > 100 µM
TGI (RXF 393 renal): 72.7 µM
TGI (SF-295 CNS): > 100 µM
TGI (SK-OV-3 ovarian): > 100 µM
TGI (KM20L2 colon): > 100 µM
TGI (OVCAR-8 ovarian): > 100 µM
TGI (UACC-62 melanoma): > 100 µM
TGI (NCI-H23 lung): > 100 µM
TGI (HOP-62 NSCLC): > 100 µM
TGI (TK-10 renal): > 100 µM
TGI (K-562 leukemia): > 100 µM
TGI (COLO 205 colon): 39.4 µM
TGI (OVCAR-4 ovarian): > 100 µM
TGI (MOLT-4 leukemia): > 100 µM
TGI (SR leukemia): > 100 µM
TGI (NCI-H460 lung): > 100 µM
TGI (HT29 colon): > 100 µM
